The text below walks through data of PubChem BioAssay (NCI).

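Five compound concentrations were applied to cells in 96-well plates for 48 hours; endpoints were derived by simple linear interpolation of the resulting dose-response curve. Abbreviation: GI50, concentration required for 50% inhibition of growth. TGI marks complete inhibition of growth.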

Holding throughout (assay): inhibition of tumour cell growth, NCI panel, 48 h
For assay [1], the system named is MDA-MB-435.
Assay [2] has as its system MCF7 breast.
The subject of assay [3] is BT-549 breast.
For assay [4], the system named is NCI/ADR-RES ovarian.

For the compound `O=C1Nc2ccc(-c3cccnc3)cc2/C1=C/c1cc(Br)c(O)c(Br)c1`, the GI50 is 4.6 µM in assay [1], 11.4 µM in assay [2], 6.05 µM in assay [3] and > 20 µM in assay [4]. Moreover, the TGI in assay [1] is > 21.7 µM; in assay [2] it was > 25 µM; in assay [3] it was > 18.9 µM; in assay [4] it was > 25 µM.

For `O=C(CI)NC(=O)NC(=O)NCc1ccccc1`, the GI50 is 3.15 µM in assay [1], 2.28 µM in assay [2], 2.8 µM in assay [3] and 4.62 µM in assay [4]. Also, the TGI in assay [1] was 11.7 µM; in assay [2], 8.59 µM; in assay [3], 8.17 µM; in assay [4], 30.3 µM.

Consider `Nc1nc(Cl)c2ncn(Cc3ccc(C45CC6CC(CC(C6)C4)C5)c(OCc4cc(F)c(F)cc4F)c3)c2n1`, for which the GI50 in assay [1] is 2.98 µM; in assay [2], 3.12 µM; in assay [3] it was 3.86 µM; in assay [4], 3.5 µM. The TGI in assay [1] worked out at 17.6 µM; in assay [2] it was 16.3 µM; in assay [3], 13 µM; in assay [4], 13.8 µM.

For the compound `O=c1[nH]c2ccccc2cc1-c1nnc(Cc2ccccc2)o1`, the GI50 in assay [1] was 3.51 µM; in assay [2] it was 2.41 µM; in assay [3] it was 2.56 µM; in assay [4] it was 14.4 µM. Besides, the TGI in assay [1] amounted to 17.5 µM; in assay [2] it was 12.9 µM; in assay [3], 10.2 µM; in assay [4], 71.1 µM.

As to `CN(C)C1C(=O)C(C(N)=O)=C(O)C2(O)C(=O)C3=C(O)c4c(O)cccc4C(C)(O)C3CC12.[Cl][Sb]([Cl])[Cl]` (stereo unspecified), the GI50 was 2.91 µM in assay [1], 3.55 µM in assay [2], 2.95 µM in assay [3] and 3.19 µM in assay [4]. For the same compound, the TGI in assay [1] was 10.4 µM; in assay [2], 13 µM; in assay [3], 10.4 µM; in assay [4], 16.6 µM.

For the compound `COc1cc2c(c3c1c(=O)c1ccccc1n3C)C=C([N+](=O)[O-])C(C)(C)O2`, the TGI in assay [1] was 0.577 µM; in assay [2], > 100 µM; in assay [4] it was > 100 µM.

For `O=C1c2cccc3c(N4CCOCC4)ccc(c23)C(=O)N1CCN1CCN(CCCCCN2CCN(CCN3C(=O)c4cccc5c(N6CCOCC6)ccc(c45)C3=O)CC2)CC1`, the GI50 is > 100 µM in assay [1], 77.6 µM in assay [2], > 100 µM in assay [3] and > 100 µM in assay [4]. In addition, the TGI in assay [1], in assay [2], in assay [3] and in assay [4] was > 100 µM each time.

With `C/C(=C/CCC(C)[C@@H]1CC[C@]2(C)C3=C(CC[C@@]12C)[C@@]1(C)CCC(=O)C(C)(C)[C@@H]1CC3)C(=O)O` (stereo partly specified), the GI50 in assay [1] is 1.25 µM; in assay [2], 1.02 µM; in assay [3], 1.17 µM; in assay [4], 1.54 µM. Also, the TGI was determined as 2.74 µM in assay [1], 2.87 µM in assay [2], 2.45 µM in assay [3] and 3.26 µM in assay [4].

Take `CCc1ccc(Oc2c(-c3ccc(OCc4ccc(Cl)cc4)cc3O)nn(C)c2C(F)(F)F)cc1`: the GI50 is 1.06 µM in assay [1], 0.339 µM in assay [2], 1.56 µM in assay [3] and 0.905 µM in assay [4]. Also, the TGI worked out at 2.25 µM in assay [1], 1.9 µM in assay [2], 3.34 µM in assay [3] and 4.47 µM in assay [4].

`C#COc1cccc(Nc2ncnc3cc(NC(=O)[C@@H](C)Cl)ccc23)c1`: the GI50 was 1.65 µM in assay [1], 18.8 µM in assay [2], 6.89 µM in assay [3] and 5.21 µM in assay [4]. In addition, the TGI in assay [1] was 4.66 µM; in assay [2], > 62.5 µM; in assay [3], > 62.5 µM; in assay [4], 34.6 µM.

With `O=C(Nc1nc2ccc(S(=O)(=O)Nc3ccc(C4(C(F)(F)F)CC4)cc3)cc2[nH]1)c1cnccn1`, the GI50 in assay [1] is 0.33 µM; in assay [2], 0.551 µM; in assay [3], 1.91 µM; in assay [4] it was 1.73 µM. Also, the TGI in assay [1] came out at 1.4 µM; in assay [2], 13.4 µM; in assay [3], 16.1 µM; in assay [4] it was 11.8 µM.

Take `CCOC(=O)c1cn(C)c2c(OC)c3ccccc3c(OC)c2c1=O`: the GI50 in assay [1] is 15.9 µM; in assay [2], 22.9 µM; in assay [3] it was 43 µM; in assay [4], 20.4 µM. For the same compound, the TGI in assay [1] was 30 µM; in assay [2] it was 47.8 µM; in assay [3], > 100 µM; in assay [4], 56.5 µM.

Turning to `O=c1[nH]c(=S)[nH]c(O)c1/C=C1\C=Nc2ccccc21`, the GI50 in assay [1] is 2.01 µM; in assay [2], 3.95 µM; in assay [3], 9.92 µM; in assay [4], 6.64 µM. Moreover, the TGI came to 4.94 µM in assay [1], 23.9 µM in assay [2], 37.4 µM in assay [3] and 58 µM in assay [4].

On to `CCN(CC)CCCC(Nc1c2ccc(Cl)cc2nc2ccc(OC)cc12)c1ccc(Cl)cc1` (stereo unspecified), for which the GI50 is 0.576 µM in assay [1], 0.348 µM in assay [2], 1.7 µM in assay [3] and 1.47 µM in assay [4]. Moreover, the TGI in assay [1] was 1.93 µM; in assay [2], 1.43 µM; in assay [3], 3.47 µM; in assay [4] it was 3.08 µM.

Regarding `Cc1ccccc1Nc1cc(O)c2c(=O)cc(-c3ccccc3)oc2c1`, the GI50 is 0.315 µM in assay [1], 0.821 µM in assay [2], 4.03 µM in assay [3] and 1.28 µM in assay [4]. The TGI in assay [1] was 1.93 µM; in assay [2], > 100 µM; in assay [3], > 100 µM; in assay [4] it was > 100 µM.

Regarding `OCC1OC(OC2(CO)OC(CO)C(O)C2O)C(O)C(O)C1O` (stereo unspecified), the GI50 in assay [1], in assay [3] and in assay [4] was > 100 µM in each case. Also, the TGI in assay [1], in assay [3] and in assay [4] was > 100 µM each time.
